According to patent US20250277012A1 (Protagonist Therapeutics, Inc., priority 2021, published 2025):
Positions of bridges follow the written chain, without caps; N, C: chain ends. Non-standard residues stand in square brackets, D forms with d. Residues, ends and D or L forms follow the SMILES beside them. Groups on a side chain read outwards from the residue. *: point of attachment. X2 = C[N+](C)(CCNC(=O)CCCCCCCCCCCCCCCCC(=O)O)CC(=O)NCC[N+](C)(C)CC(=O)*; X1 = C[N+](C)(CCNC(=O)CCCCCCCCCCCCCCCCC(=O)O)CC(=O)*; X5 = CCCCCCCCCCCCCCCC(=O)NCC[N+](C)(C)CC(=O)*; Dip = N[C@H](C(=O)O)C(c1ccccc1)c1ccccc1; Pro(3R-OH) = O=C(O)[C@H]1NCC[C@H]1O; NMeT = CN[C@H](C(=O)O)[C@@H](C)O; NMeE = CN[C@@H](CCC(=O)O)C(=O)O; β3hF = N[C@H](CC(=O)O)Cc1ccccc1; NMeK = CN[C@@H](CCCCN)C(=O)O; αMeP = C[C@@]1(C(=O)O)CCCN1; Isovaleryl = CC(C)CC(=O)*; Ahx = NCCCCCC(=O)O

What follows are compounds tested against T1, ferroportin (Homo sapiens, UniProt Q9NP59) (assay: T47D cell-based ferroportin internalization assay in presence of mouse serum albumin (MSA)). Conditions: Table 6E; T47D internalization assay with MSA.
T1 sequence (Q9NP59 1-571): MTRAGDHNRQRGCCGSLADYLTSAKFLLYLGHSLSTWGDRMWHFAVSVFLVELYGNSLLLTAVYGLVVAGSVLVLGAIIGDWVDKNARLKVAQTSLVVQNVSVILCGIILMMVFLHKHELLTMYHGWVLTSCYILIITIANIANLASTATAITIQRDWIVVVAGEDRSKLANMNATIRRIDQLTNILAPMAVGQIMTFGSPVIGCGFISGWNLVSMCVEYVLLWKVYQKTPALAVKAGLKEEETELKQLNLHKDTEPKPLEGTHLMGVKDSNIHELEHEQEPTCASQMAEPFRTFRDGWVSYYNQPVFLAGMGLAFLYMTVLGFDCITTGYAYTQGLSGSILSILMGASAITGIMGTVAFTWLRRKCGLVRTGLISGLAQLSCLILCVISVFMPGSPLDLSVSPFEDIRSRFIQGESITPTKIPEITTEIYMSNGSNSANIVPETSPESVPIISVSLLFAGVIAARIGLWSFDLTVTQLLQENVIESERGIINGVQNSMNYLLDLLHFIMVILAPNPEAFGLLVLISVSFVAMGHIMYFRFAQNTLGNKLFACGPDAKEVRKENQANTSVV
Design: a human breast carcinoma adherent cell line which endogenously expresses ferroportin; host or cells: T47D
Experimental: The potency of the peptides in causing ferroportin internalization was evaluated in a T47D cell-based assay. […] In this internalization assay, the potency of the test peptides was evaluated in presence of serum albumin which is the main protein component in the blood. T47D cells were maintained in RPMI media (containing required amount of fetal bovine serum) and regularly sub-cultured. In preparation for the assay, the cells were seeded in 96-well plates at a density of 80-100 k cells per well in 100 ul volume and allowed to rest overnight. […] Sigma, A3139). The test peptide dilution series were allowed to incubate at room temperature for 30 min. Then the media was aspirated from the 96-well cell plate and test peptide dilution series were added. […] The AF647-conjugated detection peptide was previously verified to bind to ferroportin and cause its internalization. The cells were washed again after a 2 hr incubation in preparation for flow cytometry analysis. The Median Fluorescence Intensity (MFI) of the AF647-positive population was measured (after removing dead cells and non-singlets from the analysis). The MFI values were used to generate a dose-response curve and obtain IC50 potencies for the test peptides.

`CCCCCCCCCCCCCCCC(=O)NCC[N+](C)(C)CC(=O)NCCCCCC(=O)NCCCC[C@@H](C(=O)N[C@H](C(=O)N[C@H](CCCCN)C(N)=O)C(c1ccccc1)c1ccccc1)N(C)C(=O)[C@@H]1CSSC[C@H](NC(=O)[C@@H]2CCCN2C(=O)[C@@H](NC(=O)[C@H](Cc2cnc[nH]2)NC(=O)[C@@H](NC(=O)[C@H](CCC(=O)O)N(C)C(=O)CC(C)C)[C@@H](C)O)C(c2ccccc2)c2ccccc2)C(=O)N1` [compound 167] (Isovaleryl-[NMeE]TH[Dip]PCC[NMeK]([Ahx-X5])[Dip][dK]-NH2; disulfide 6-7) and `CCCCCCCCCCCCCCCC(=O)NCC[N+](C)(C)CC(=O)NCCCCCC(=O)NCCCC[C@@H](C(=O)N[C@H](C(=O)N[C@H](CCCCN)C(N)=O)C(c1ccccc1)c1ccccc1)N(C)C(=O)[C@@H]1CSSC[C@H](NC(=O)[C@@H]2CCCN2C(=O)[C@@H](NC(=O)[C@H](Cc2cnc[nH]2)NC(=O)[C@@H](NC(=O)[C@H](CCC(=O)O)NC(=O)CC(C)C)[C@@H](C)O)C(c2ccccc2)c2ccccc2)C(=O)N1` [compound 197] (Isovaleryl-ETH[Dip]PCC[NMeK]([Ahx-X5])[Dip][dK]-NH2; disulfide 6-7) fall in the same range of IC50: 1 to 10 nM for the first, 1 to 10 nM for the second.

`COC(=O)CC[C@H](NC(=O)CC(C)C)C(=O)N(C)[C@H](C(=O)N[C@@H](Cc1c[nH]cn1)C(=O)N[C@H](C(=O)N1CCC[C@H]1C(=O)N[C@H]1CSSC[C@@H](C(=O)N(C)[C@@H](CCCCNC(=O)C[N+](C)(C)CCNC(=O)CCCCCCCCCCCCCCCCC(=O)O)C(=O)N[C@H](C(N)=O)C(c2ccccc2)c2ccccc2)NC1=O)C(c1ccccc1)c1ccccc1)[C@@H](C)O` [compound 186] (Isovaleryl-E(OMe)[NMeT]H[Dip]PCC[NMeK](X1)[Dip]-NH2; disulfide 6-7) and `CC(C)CC(=O)N[C@@H](CCC(=O)O)C(=O)N(C)[C@H](C(=O)N[C@@H](Cc1c[nH]cn1)C(=O)N[C@H](C(=O)N1CCC[C@H]1C(=O)N[C@H]1CSSC[C@@H](C(=O)N(C)[C@@H](CCCCNC(=O)CCCCCNC(=O)C[N+](C)(C)CCNC(=O)CCCCCCCCCCCCCCCCC(=O)O)C(=O)N[C@H](C(N)=O)C(c2ccccc2)c2ccccc2)NC1=O)C(c1ccccc1)c1ccccc1)[C@@H](C)O` [compound 189] (Isovaleryl-E[NMeT]H[Dip]PCC[NMeK]([Ahx-X1])[Dip]-NH2; disulfide 6-7) fall in the same range of IC50: 100 to 500 nM for the first, 100 to 500 nM for the second.

`CC(C)CC(=O)N[C@@H](CCC(=O)O)C(=O)N1CC[C@@H](O)[C@H]1C(=O)N[C@@H](Cc1c[nH]cn1)C(=O)N[C@H](C(=O)N1CCC[C@H]1C(=O)N[C@H]1CSSC[C@@H](C(=O)N(C)[C@@H](CCCCNC(=O)CCCCCNC(=O)C[N+](C)(C)CCNC(=O)CCCCCCCCCCCCCCCCC(=O)O)C(=O)N[C@H](C(=O)N[C@H](CCCCN)C(N)=O)C(c2ccccc2)c2ccccc2)NC1=O)C(c1ccccc1)c1ccccc1` [compound 191] (Isovaleryl-E[Pro(3R-OH)]H[Dip]PCC[NMeK]([Ahx-X1])[Dip][dK]-NH2; disulfide 6-7) and `COC(=O)CC[C@H](NC(=O)CC(C)C)C(=O)N1CCC[C@@]1(C)C(=O)N[C@@H](Cc1c[nH]cn1)C(=O)N[C@H](C(=O)N1CCC[C@H]1C(=O)N[C@H]1CSSC[C@@H](C(=O)N(C)[C@@H](CCCCNC(=O)CCCCCNC(=O)C[N+](C)(C)CCNC(=O)CCCCCCCCCCCCCCCCC(=O)O)C(=O)N[C@H](C(=O)N[C@H](CCCCN)C(N)=O)C(c2ccccc2)c2ccccc2)NC1=O)C(c1ccccc1)c1ccccc1` [compound 145] (Isovaleryl-E(OMe)[αMeP]H[Dip]PCC[NMeK]([Ahx-X1])[Dip][dK]-NH2; disulfide 6-7) fall in the same range of IC50: 10 to 100 nM for the first, 10 to 100 nM for the second.

`COC(=O)CC[C@H](NC(=O)CC(C)C)C(=O)N[C@H](C(=O)N[C@@H](Cc1c[nH]cn1)C(=O)N[C@H](C(=O)N1CCC[C@H]1C(=O)N[C@H]1CSSC[C@@H](C(=O)N[C@H](CCCCNC(=O)CCCCCNC(=O)C[N+](C)(C)CCNC(=O)CCCCCCCCCCCCCCCCC(=O)O)C(=O)N[C@H](CC(=O)N[C@H](CCCCN)C(N)=O)Cc2ccccc2)NC1=O)C(c1ccccc1)c1ccccc1)[C@@H](C)O` [compound 213] (Isovaleryl-E(OMe)TH[Dip]PCC[dK]([Ahx-X1])[β3hF][dK]-NH2; disulfide 6-7) and `COC(=O)CC[C@H](NC(=O)CC(C)C)C(=O)N[C@H](C(=O)N[C@@H](Cc1c[nH]cn1)C(=O)N[C@H](C(=O)N1CCC[C@H]1C(=O)N[C@H]1CSSC[C@@H](C(=O)N[C@H](CCCCNC(=O)CCCCCNC(=O)C[N+](C)(C)CCNC(=O)CCCCCCCCCCCCCCCCC(=O)O)C(=O)N[C@H](C(=O)N[C@H](CCCCN)C(N)=O)C(c2ccccc2)c2ccccc2)NC1=O)C(c1ccccc1)c1ccccc1)[C@@H](C)O` [compound 208] (Isovaleryl-E(OMe)TH[Dip]PCC[dK]([Ahx-X1])[Dip][dK]-NH2; disulfide 6-7) fall in the same range of IC50: 10 to 100 nM for the first, 10 to 100 nM for the second.

First: CC(C)CC(=O)N[C@@H](CCC(=O)O)C(=O)N[C@H](C(=O)N[C@@H](Cc1cnc[nH]1)C(=O)N[C@H](C(=O)N1CCC[C@H]1C(=O)N[C@H]1CSSC[C@@H](C(=O)N(C)[C@@H](CCCCNC(=O)CCCCCNC(=O)C[N+](C)(C)CCNC(=O)CCCCCCCCCCCCCCCCC(=O)O)C(=O)N[C@H](C(=O)N[C@H](CCCCN)C(N)=O)C(c2ccccc2)c2ccccc2)NC1=O)C(c1ccccc1)c1ccccc1)[C@@H](C)O [compound 198] (Isovaleryl-ETH[Dip]PCC[NMeK]([Ahx-X1])[Dip][dK]-NH2; disulfide 6-7)
Second: CCCCCCCCCCCCCCCC(=O)NCC[N+](C)(C)CC(=O)NCCCC[C@@H](C(=O)N[C@H](C(=O)N[C@H](CCCCN)C(N)=O)C(c1ccccc1)c1ccccc1)N(C)C(=O)[C@@H]1CSSC[C@H](NC(=O)[C@@H]2CCCN2C(=O)[C@@H](NC(=O)[C@H](Cc2cnc[nH]2)NC(=O)[C@@H](NC(=O)[C@H](CCC(=O)OC)NC(=O)CC(C)C)[C@@H](C)O)C(c2ccccc2)c2ccccc2)C(=O)N1 [compound 175] (Isovaleryl-E(OMe)TH[Dip]PCC[NMeK](X5)[Dip][dK]-NH2; disulfide 6-7)
The IC50 of the first is higher: 10 to 100 nM for the first, 1 to 10 nM for the second. The second is the more potent here.

`CCCCCCCCCCCCCCCC(=O)NCC[N+](C)(C)CC(=O)NCCCC[C@@H](C(=O)N[C@H](C(=O)N(C)[C@@H](CCCCN)C(N)=O)C(c1ccccc1)c1ccccc1)N(C)C(=O)[C@@H]1CSSC[C@H](NC(=O)[C@@H]2CCCN2C(=O)[C@@H](NC(=O)[C@H](Cc2c[nH]cn2)NC(=O)[C@H]([C@@H](C)O)N(C)C(=O)[C@H](CCC(=O)OC)NC(=O)CC(C)C)C(c2ccccc2)c2ccccc2)C(=O)N1` [compound 149] (Isovaleryl-E(OMe)[NMeT]H[Dip]PCC[NMeK](X5)[Dip][NMeK]-NH2; disulfide 6-7) and `CC(C)CC(=O)N[C@@H](CCC(=O)O)C(=O)N(C)[C@H](C(=O)N[C@@H](Cc1c[nH]cn1)C(=O)N[C@H](C(=O)N1CCC[C@H]1C(=O)N[C@H]1CSSC[C@@H](C(=O)N(C)[C@@H](CCCCNC(=O)C[N+](C)(C)CCNC(=O)CCCCCCCCCCCCCCCCC(=O)O)C(=O)N[C@H](C(=O)N[C@H](CCCCN)C(N)=O)C(c2ccccc2)c2ccccc2)NC1=O)C(c1ccccc1)c1ccccc1)[C@@H](C)O` [compound 187] (Isovaleryl-E[NMeT]H[Dip]PCC[NMeK](X1)[Dip][dK]-NH2; disulfide 6-7) fall in the same range of IC50: 10 to 100 nM for the first, 10 to 100 nM for the second.

First: CCCCCCCCCCCCCCCC(=O)NCC[N+](C)(C)CC(=O)NCCCC[C@@H](C(=O)N[C@H](C(=O)N[C@H](CCCCN)C(N)=O)C(c1ccccc1)c1ccccc1)N(C)C(=O)[C@@H]1CSSC[C@H](NC(=O)[C@@H]2CCCN2C(=O)[C@@H](NC(=O)[C@H](Cc2c[nH]cn2)NC(=O)[C@@H]2[C@H](O)CCN2C(=O)[C@H](CCC(=O)OC)NC(=O)CC(C)C)C(c2ccccc2)c2ccccc2)C(=O)N1 [compound 151] (Isovaleryl-E(OMe)[Pro(3R-OH)]H[Dip]PCC[NMeK](X5)[Dip][dK]-NH2; disulfide 6-7)
Second: COC(=O)CC[C@H](NC(=O)CC(C)C)C(=O)N[C@H](C(=O)N[C@@H](Cc1c[nH]cn1)C(=O)N[C@H](C(=O)N1CCC[C@H]1C(=O)N[C@H]1CSSC[C@@H](C(=O)N[C@@H](CCCCNC(=O)C[N+](C)(C)CCNC(=O)C[N+](C)(C)CCNC(=O)CCCCCCCCCCCCCCCCC(=O)O)C(=O)N[C@H](C(=O)N[C@H](CCCCN)C(N)=O)C(c2ccccc2)c2ccccc2)NC1=O)C(c1ccccc1)c1ccccc1)[C@@H](C)O [compound 209] (Isovaleryl-E(OMe)TH[Dip]PCCK(X2)[Dip][dK]-NH2; disulfide 6-7)
The IC50 of the first is lower: 1 to 10 nM for the first, 10 to 100 nM for the second.
